One assay relates to EAE in C57BL/6 mice. Description: Chronic EAE mouse model (MOG35-55 immunization), daily clinical score and body weight. In kind it is in vivo. On the set-up: key to Delay in onset of the disease / Reduction in severity of the disease / Reduction in body weight loss: +++: high level improvement; ++: moderate improvement; +: small improvement; −: no improvement. To be noted: for Delay in onset of the disease / Reduction in body weight loss / Reduction in severity of the disease: average overall effects on the EAE model, i.p. An excerpt:
The aim of this study was to verify the effectiveness of compounds in a chronic mouse animal model of EAE. EAE is a good proof-of-principle model of neurodegeneration since it encompasses degeneration or destruction of practically all the cells in the central nervous system, includes most major immunomodulatory components, and is able to maintain normal innate regenerative functions in the animal. This is a standard model (Antel J P et al., J Neurosci Res. 1997, 50: 345-353) used mainly to mimic the course evolution of Multiple Sclerosis (MS) in humans, and is commonly used for studying disease mechanisms and testing potential therapies. EAE is induced by immunization with myelin proteins, leading to development of myelin-specific T cells. These autoreactive T cells traffic into CNS parenchyma where they initiate an inflammatory cascade through recruitment of other cells such as monocytes and neutrophils. Accumulation of immune cells within CNS leads to myelin damage, axonal loss and clinical deficit in affected animals. EAE can be induced in a variety of species and strains of animals [mice, Rat, marmoset monkey, rhesus macaques] using various CNS antigens [Myelin Oligodendrocyte Glycoprotein (MOG), proteolipid protein (PLP) and myelin basic protein (MBP)]. Seven to 8 week old female C57BL/6 mice were purchased from Charles River Laboratories, and housed at MISPRO™ animal facility for one week before experimentation for adaptation to the new environment. All proper animal experimentation and ethics approvals were obtained prior to the start of any experiments. Mice were immunized subcutaneously with 100 μg of MOG35-55 (Sheldon Biotechnology Centre, McGill University) in CFA containing 5 mg/ml of desiccated (killed and dried) Mycobacterium tuberculosis H37Ra (Difco, Inc), at two sites on the back. The mice were then injected with 200 ng of pertussis toxin (List Biological Laboratories, Inc) in PBS intraperitoneally on days 0 and 2 using 25 gauge needles and scored daily using an EAE clinical scale as detailed below (Touil T et al., J Neurol Sci. 2008, 271:191-202; Antel J P et al., 1997, supra; Owens T et al., Curr Pharm Des. 2005, 1:1031-1037).
EAE was clinically assessed throughout the experiments by daily scoring using a scale from 0 to 5 as follows: partial limp tail, 0.5; full limp tail, 1; limp tail and waddling gait, 1.5; paralysis of one hind limb, 2; paralysis of one hind limb and partial paralysis of other hind limb, 2.5; paralysis of both hind limbs, 3; ascending paralysis, 3.5; paralysis of trunk, 4; moribund, 4.5; death, 5. In all the EAE models a body weight loss is always associated with the clinical signs. This body weight loss is associated with the loss of the function and the paralysis of the muscle (atrophy inducing loss of weight). For animals showing a clinical sign of 2 or more, the food and the water were presented inside the cage to facilitate eating and drinking.
At the onset of clinical signs of EAE, the mice were treated with 200 μl of Compound 51, 53, 57, 59, 101, 104, 105, 111 or 123 dissolved in 2.5% Dimethyl sulfoxide (DMSO) in PBS, while placebo groups were treated with 2.5% Dimethyl sulfoxide (DMSO) in PBS only, by intraperitoneal injection at different time of the clinical evolution.

The target in another assay is Caspase-1 (Homo sapiens (Human), UniProt P29466). Description: Caspase-1 Inhibitor Drug Screening Kit, fluorometric (AFC liberation). To be noted: 30-minute incubation at 37° C.; approximations of the average values; read-out: Caspase enzymatic activity, IC50 (uM) Caspase 1. In kind it is biochemical.
A further assay addresses Caspase-3 (Homo sapiens (Human), UniProt P42574). As to the kind of experiment: Caspase-3 Inhibitor Drug Screening Kit, fluorometric (AFC liberation). In kind it is biochemical. To be noted: for IC50: 30-minute incubation at 37° C., approximations of the average values, read-out: Caspase enzymatic activity, IC50 (uM) Caspase 3.
Another assay addresses Caspase-9 (Homo sapiens (Human), UniProt P55211). As to the kind of experiment: Caspase-9 Inhibitor Drug Screening Kit, fluorometric (AFC liberation). The class given is biochemical. To be noted: 30-minute incubation at 37° C.; approximations of the average values; read-out: Caspase enzymatic activity, IC50 (uM) Caspase 9.
A further assay deals with Caspase-7 (Homo sapiens (Human), UniProt P55210). As to the kind of experiment: Caspase-7 Inhibitor Drug Screening Kit, fluorometric (AFC liberation). To be noted: 30-minute incubation at 37° C.; approximations of the average values; read-out: Caspase enzymatic activity, IC50 (uM) Caspase 7. In kind it is biochemical.
For a further assay, the target named is Caspase-5 (Homo sapiens (Human), UniProt P51878). Description: Caspase-5 Inhibitor Drug Screening Kit, fluorometric (AFC liberation). The class given is biochemical. To be noted: 30-minute incubation at 37° C.; approximations of the average values; read-out: Caspase enzymatic activity, IC50 (uM) Caspase 5.
Another assay concerns Glo3/7. Description: Glo3/7 assay. In kind it is biochemical.
Where [1] appears, read: FIG. 2, i.p. from day 10 to 16 post immunization, versus placebo.
Setting [2] is: FIG. 4, administration for 15 days from day 12 post-immunization, versus placebo.

pIC50: −log10 of the molar value. Where two headings read alike, the source gives them in different places.

One may read the IC50 as the concentration needed to halve the response being measured. The term pIC50 denotes −log10 of the IC50, conventionally taken in molar units.

Sequence of Caspase-9 (P55211 whole entry): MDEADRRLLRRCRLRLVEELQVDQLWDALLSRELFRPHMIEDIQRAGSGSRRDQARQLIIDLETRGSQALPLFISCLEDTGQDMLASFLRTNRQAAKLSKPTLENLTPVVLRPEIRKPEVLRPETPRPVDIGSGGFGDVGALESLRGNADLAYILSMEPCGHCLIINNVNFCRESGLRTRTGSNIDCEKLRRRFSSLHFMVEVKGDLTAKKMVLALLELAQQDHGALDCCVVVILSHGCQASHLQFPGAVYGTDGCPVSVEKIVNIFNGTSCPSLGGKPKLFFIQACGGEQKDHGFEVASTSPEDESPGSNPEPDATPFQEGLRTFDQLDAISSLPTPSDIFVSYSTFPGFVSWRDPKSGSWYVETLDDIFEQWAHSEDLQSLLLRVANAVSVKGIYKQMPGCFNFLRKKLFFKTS
Sequence of Caspase-7 (P55210 whole entry): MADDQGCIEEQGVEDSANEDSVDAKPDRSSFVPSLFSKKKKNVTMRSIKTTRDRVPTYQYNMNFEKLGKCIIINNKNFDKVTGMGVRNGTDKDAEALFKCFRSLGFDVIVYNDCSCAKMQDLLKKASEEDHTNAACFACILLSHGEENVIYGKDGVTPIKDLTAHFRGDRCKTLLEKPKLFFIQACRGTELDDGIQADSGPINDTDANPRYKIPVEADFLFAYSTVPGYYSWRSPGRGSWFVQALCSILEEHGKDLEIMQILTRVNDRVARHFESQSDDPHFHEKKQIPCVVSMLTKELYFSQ
Sequence of Caspase-3 (P42574 29-277): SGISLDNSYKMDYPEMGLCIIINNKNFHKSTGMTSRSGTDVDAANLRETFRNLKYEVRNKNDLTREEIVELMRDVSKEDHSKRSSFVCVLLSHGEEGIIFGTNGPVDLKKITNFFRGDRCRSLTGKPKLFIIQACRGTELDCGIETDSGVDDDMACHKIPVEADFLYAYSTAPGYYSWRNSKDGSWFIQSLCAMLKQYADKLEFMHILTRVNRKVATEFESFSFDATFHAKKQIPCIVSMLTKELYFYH
Sequence of Caspase-5 (P51878 137-434): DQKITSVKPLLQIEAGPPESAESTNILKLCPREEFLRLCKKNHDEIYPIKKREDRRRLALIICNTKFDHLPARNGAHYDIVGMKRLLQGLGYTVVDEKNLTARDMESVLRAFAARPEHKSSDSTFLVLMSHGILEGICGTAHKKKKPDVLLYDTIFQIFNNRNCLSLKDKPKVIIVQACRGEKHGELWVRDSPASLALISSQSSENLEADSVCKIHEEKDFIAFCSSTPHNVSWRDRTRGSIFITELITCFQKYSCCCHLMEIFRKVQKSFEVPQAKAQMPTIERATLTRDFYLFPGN
Sequence of Caspase-1 (P29466 120-404): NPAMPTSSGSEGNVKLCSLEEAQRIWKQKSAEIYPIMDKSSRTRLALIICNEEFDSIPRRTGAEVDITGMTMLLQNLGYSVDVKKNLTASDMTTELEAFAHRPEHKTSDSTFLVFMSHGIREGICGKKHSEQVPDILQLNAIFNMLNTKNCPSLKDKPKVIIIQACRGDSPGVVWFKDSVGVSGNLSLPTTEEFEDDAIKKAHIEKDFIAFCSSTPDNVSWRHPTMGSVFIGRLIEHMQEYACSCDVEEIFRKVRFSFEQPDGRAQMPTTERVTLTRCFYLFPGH
Method for Caspase-1: (§1) The level of inhibition of caspase-1, -3, -5, -7, -9 activity was determined by comparison of the relative fluorescence intensity in samples with or without the compound.
Method for Caspase-3: as §1
Method for Caspase-5: as §1
Method for Caspase-7: as §1
Method for Caspase-9: as §1

Take `CC(C)[C@H](NC(=O)[C@H](Cc1ccc(OC(C)(C)C)cc1)NC(=O)OCc1ccccc1)C(=O)N[C@@H](C)C(=O)N[C@H](/C=C/S(=O)(=O)c1ccccc1)CC(=O)OC(C)(C)C` [Compound 95, Z-Tyr(OtBu)- Val-Ala-Asp (OtBu) phenyl vinyl sulfone]: the “effects on the clinical course of EAE” value with EAE in C57BL/6 mice (FIG. 3, i.p. from day 14 to 19 post immunization, versus placebo) is recorded as “ameliorating effects”.

In the case of `CC(C)[C@H](NC(=O)[C@@H](NC(=O)[C@H](CC(=O)O)NC(=O)OCc1ccccc1)C1Cc2ccccc2C1)C(=O)N[C@H](/C=C/S(=O)(=O)C(C)C)CC(=O)O` [Compound 68, Z-Asp-Indanylglycine-Val-Aspisopropyl Vinyl Sulfone], the IC50 at Caspase-1 is over 3.33 µM; on Caspase-3 it was 0.2 µM; on Caspase-9, over 3.33 µM; at Caspase-7, 1.5 µM; on Caspase-5, over 3.33 µM; in the assay with Glo3/7, 1.1 µM.

Consider `CC(C)[C@H](NC(=O)[C@H](Cc1c[nH]c2ccccc12)NC(=O)[C@H](CC(=O)O)NC(=O)OCc1ccccc1)C(=O)N[C@H](/C=C/S(C)(=O)=O)CC(=O)O` [Compound 88, Z-Asp-Trp-Val-Aspmethyl vinyl sulfone], for which the IC50 is 0.7 µM on Caspase-1; 0.04 µM at Caspase-3; over 3.33 µM on Caspase-9; 1.1 µM at Caspase-7; over 3.33 µM on Caspase-5; 0.7 µM in the assay on Glo3/7. The negative-log IC50 (pIC50) at Caspase-3 (read-out: IC50 caspase-3) was 7.05 to 7.52.

On to `CC(C)[C@H](NC(=O)OCc1ccccc1)C(=O)N[C@H](/C=C/S(C)(=O)=O)CC(=O)O` [Compound 61, z-Val-AspVSmethyl], for which the IC50 at Caspase-1 is over 3.33 µM; on Caspase-3 it was over 3.33 µM; on Caspase-9, over 3.33 µM; on Caspase-7 it was over 3.33 µM; on Caspase-5 it was over 3.33 µM; in the assay with Glo3/7 it was 50 µM. Also, at Caspase-3, the “activity against caspase-3” value was “abolished completely the activity”.

In the case of `COC(=O)C[C@@H](/C=C(\Cl)S(C)(=O)=O)NC(=O)[C@@H](NC(=O)[C@@H](NC(=O)[C@H](CC(=O)OC)NC(=O)OCc1ccccc1)c1ccccc1)C(C)C` [Compound 104, Z-Asp(β-methyl)-phenylglycine-Val-Asp(β-methyl)achlorovinyl Methylsulfone], in the assay on EAE in C57BL/6 mice (setting [1]), the Disease onset entry is “delayed”; the “Loss of body weight” value was “did not show and significant difference compared to placebo”; the “severity of the disease” value is on record as “reduced significantly at the early stage of the disease”. For the same compound, in the assay with EAE in C57BL/6 mice, the “Delay in onset of the disease” value is recorded as “++”, the “Reduction in body weight loss” value was “−” and the “Reduction in severity of the disease” value is listed as “+”.

On to `COC(=O)C[C@@H](/C=C(\Cl)S(C)(=O)=O)NC(=O)[C@@H](NC(=O)[C@@H](NC(=O)[C@H](CC(=O)OC)NC(=O)OCc1ccccc1)C1Cc2ccccc2C1)C(C)C` [Compound 105, Z-Asp(β-methyl)-indanylglycine-Val-Asp(β-methyl)achlorovinyl Methylsulfone], for which, in the assay with EAE in C57BL/6 mice (setting [1]), the Disease onset entry was “delayed”, the “Loss of body weight” value is listed as “less than placebo” and the “severity of the disease” value is “reduced significantly at the early stage of the disease”. Besides, in the assay with EAE in C57BL/6 mice, the “Delay in onset of the disease” value is listed as “++”, the “Reduction in body weight loss” value is “++” and the “Reduction in severity of the disease” value was “+”.

As for `COC(=O)CC[C@H](NC(=O)[C@H](CC(=O)OC)NC(=O)OCc1ccccc1)C(=O)N[C@H](C(=O)N[C@@H](CC(=O)OC)C(=O)CF)C(C)C` [zDEVD-FMK, z-D(OMe)E(OMe)VD(OMe)FMK, reference compound], in the assay with EAE in C57BL/6 mice (setting [2]), the “onset of the disease” value is reported as “delayed the onset” and the “severity of the disease” value is listed as “reduced the severity of the disease”.

For the compound `CC(C)[C@H](NC(=O)[C@H](Cc1ccc2ccccc2n1)NC(=O)[C@H](CC(=O)O)NC(=O)OCc1ccccc1)C(=O)N[C@H](/C=C/S(=O)(=O)Oc1ccccc1)CC(=O)O` [Compound 65, Z-Asp-Ala(2′-quinolyl)-Val-Aspphenoxy vinyl sulfone], the half-inhibitory concentration (IC50) is 1.2 µM at Caspase-1; 0.01 µM at Caspase-3; 0.3 µM at Caspase-9; 0.4 µM on Caspase-7; over 3.33 µM at Caspase-5; 0.2 µM in the assay on Glo3/7.

These data come from patent US9045524B2, “Selective caspase inhibitors and uses thereof” (NOVAGENESIS FOUNDATION, priority 2009, dated 2015).
